Reference: ChEMBL document CHEMBL1201862, “PubChem BioAssay data set” (2004)
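Dose response: 5 concentrations. Exposure: 48 h. Format: 96-well plates. Endpoint: linear interpolation; highest concentration if not reached. The concentration for 50% growth inhibition is given as GI50.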 Active and inactive are the calls of the source. Cut-off read from the data, not from the text of the source: active = GI50 up to about 1.1 µM and inactive = higher.

Columns and labels:
Assay in all cases: growth of human tumour cells (NCI), 48 h
MDA-N = tested on: MDA-N
SK-MEL-28 = tested on: SK-MEL-28
KM12 = tested on: KM12
LOX IMVI = tested on: LOX IMVI
K562 = tested on: K562
U-251 = tested on: U-251
M14 = tested on: M14
Malme-3M = tested on: Malme-3M
OVCAR-4 = tested on: OVCAR-4
SR = tested on: SR
HCT-15 = tested on: HCT-15
HL-60 = tested on: HL-60
NCI-H23 = tested on: NCI-H23
UO-31 = tested on: UO-31
HOP-62 = tested on: HOP-62
A498 = tested on: A498
SW-620 = tested on: SW-620
MDA-MB-231 = tested on: MDA-MB-231
SN12C = tested on: SN12C
CAKI-1 = tested on: CAKI-1

Compound | GI50 (MDA-N) | GI50 (SK-MEL-28) | GI50 (KM12) | GI50 (LOX IMVI) | GI50 (K562) | GI50 (U-251) | GI50 (M14) | GI50 (Malme-3M) | GI50 (OVCAR-4) | GI50 (SR) | GI50 (HCT-15) | GI50 (HL-60) | GI50 (NCI-H23) | GI50 (UO-31) | GI50 (HOP-62) | GI50 (A498) | GI50 (SW-620) | GI50 (MDA-MB-231) | GI50 (SN12C) | GI50 (CAKI-1)
O=C(CCCN1CCC(Nc2ccc(F)cc2)(c2nnnn2C2CCCCC2)CC1)c1ccc(F)cc1 | 15.5 µM (inactive) | 16.2 µM (inactive) | 3.52 µM (inactive) | 19.4 µM (inactive) | 3.98 µM (inactive) | 15.3 µM (inactive) | 16.7 µM (inactive) | 29.2 µM (inactive) | 12.9 µM (inactive) | 11.7 µM (inactive) | 15.2 µM | 6.52 µM (inactive) | 14.5 µM (inactive) | 14.1 µM (inactive) | 16.9 µM (inactive) | 3.79 µM (inactive) | 22.5 µM (inactive) | 16.6 µM (inactive) | 31.5 µM (inactive) | –
CC(=O)OCc1cc(OC(C)=O)c2cc3c(OC(C)=O)cccc3c(OC(C)=O)c2c1 | 17.1 µM (inactive) | 23 µM (inactive) | – | – | 19.2 µM (inactive) | 15.6 µM (inactive) | 12.5 µM (inactive) | 1.64 µM (inactive) | 17.8 µM (inactive) | 19.5 µM (inactive) | 5.61 µM | 9.51 µM (inactive) | 17.1 µM (inactive) | 17 µM (inactive) | 16.9 µM (inactive) | 11.2 µM (inactive) | 12.2 µM (inactive) | 17.1 µM (inactive) | 12.2 µM (inactive) | –
O=C(/C=C/c1cccs1)c1ccc(Cl)s1 | > 10 µM (inactive) | 29.2 µM (inactive) | 21.8 µM (inactive) | – | 31.3 µM (inactive) | 40.8 µM (inactive) | 38.8 µM (inactive) | > 100 µM (inactive) | 48.5 µM (inactive) | 25.2 µM (inactive) | 18.2 µM | 22.1 µM (inactive) | 23.1 µM (inactive) | 19.9 µM (inactive) | > 100 µM (inactive) | 55.7 µM (inactive) | 23.3 µM (inactive) | 40.3 µM (inactive) | 18.6 µM (inactive) | 83.4 µM (inactive)
c1sc(NC2=NCCO2)c2c1CCCC2 | > 100 µM (inactive) | > 100 µM (inactive) | > 100 µM (inactive) | > 100 µM (inactive) | > 100 µM (inactive) | > 100 µM (inactive) | > 100 µM (inactive) | > 100 µM (inactive) | > 100 µM (inactive) | > 100 µM (inactive) | > 100 µM | > 100 µM (inactive) | > 100 µM (inactive) | > 100 µM (inactive) | – | > 100 µM (inactive) | > 100 µM (inactive) | > 100 µM (inactive) | – | > 100 µM (inactive)
O=C(c1ccncc1)C1C(=O)c2ccccc2C1C1(O)c2ccccc2CC1C(O)c1ccncc1 (stereo not given) | 13.3 µM (inactive) | 89.3 µM (inactive) | 35.3 µM (inactive) | 33.4 µM (inactive) | 42 µM (inactive) | 41 µM (inactive) | 25.8 µM (inactive) | 58.7 µM (inactive) | 27.9 µM (inactive) | 36.7 µM (inactive) | 41.3 µM | – | 48.6 µM (inactive) | 13.9 µM (inactive) | 35.6 µM (inactive) | 49.1 µM (inactive) | 71.8 µM (inactive) | 39.2 µM (inactive) | 46.9 µM (inactive) | 34.7 µM (inactive)
Cc1cc2c(cc1N)C(C)C1(CCC(=O)N2Cc2ccccc2)OCCO1 (stereo not given) | > 100 µM (inactive) | > 100 µM (inactive) | > 100 µM (inactive) | > 100 µM (inactive) | – | > 100 µM (inactive) | > 100 µM (inactive) | 89.7 µM (inactive) | > 100 µM (inactive) | 39.2 µM (inactive) | > 100 µM | – | > 100 µM (inactive) | > 100 µM (inactive) | > 100 µM (inactive) | > 100 µM (inactive) | > 100 µM (inactive) | > 100 µM (inactive) | > 100 µM (inactive) | > 100 µM (inactive)
